Source: EP0156785A1, “2-(Aminoalkyl)-acrylophenones, their preparation and their use” (S.A.R.L. GALEPHAR, priority 1984, dated 1985)
pIC50: −log10 of the molar value.

What was measured:
plaquettes = assay: Platelet anti-aggregation activity, aggregation induced by adenosine triphosphate; type: cell-based; conditions: dose reducing platelet aggregation by 50%; inducer adénosine triphosphate; read-out: D.E.50 (the source's name)
Source text: Les propriétés antiagrégantes plaquettaires des acrylophénones de la présente invention ont été mises en évidence au moyen d'adénosine triphosphate choisi comme agent inducteur de l'agrégation plaquettaire.
Les doses efficaces réduisant de 50% l'agrégation des plaquettes (D.E.50) ont été déterminées (Tableau II). Ces résultats montrent que les substances agissent à des doses de l'ordre micromolaire.

rat = assay: Triton WR 1339-induced hyperlipidaemia in the rat (plasma triglycerides and cholesterol); type: in vivo; conditions: Triton WR 1339 175 mg/kg (IV), plasma 24 h after Triton
Description: Cette propriété a été mise en évidence chez le rat au moyen de la méthode utilisant le Triton WR 1339 comme inducteur d'hyperlipémie.
Quatre heures après l'injection I.V. aux rats de 175 mg de Triton WR 1339 par kg de poids corporel, on leur injecte par voie intrapéritonéale soit du sérum physiologique (témoins) soit la substance à étudier. Les rats sont sacrifiés 24 heures après l'injection du Triton WR 1339 et les plasmas recueillis pour les dosages (résultats : Tableau I) des triglycérides et du cholestérol.

[1] = Qualitative solubility of the isolated product; type: physicochemical
Description: 3 g (0,1 M) de trioxyméthylène et 8,65 g (0,05 M) de dichlorhydrate de N-méthylpipérazine sont ajoutés à 6 g d'acétophénone dans 20 ml d'acide acétique. Le mélange est chauffé à reflux pendant 3 h. Le solvant est éliminé et le résidu jaune huileux est dissous dans 50 ml d'éthanol. Après élimimation du solvant, le résidu cristallise dans du méthanol.

[2] = treatment 4 mg/kg (IP) 4 h after Triton
[3] = treatment 2 mg/kg (IP) 4 h after Triton

## C=C(CN1CCN(C)CC1)C(=O)c1ccccc1 [Exemple 1, Dichlorhydratede 2-(4-méthyl-1-pipérazinylméthyl)acrylophénone]
plaquettes
  pIC50: 5.88
rat; [2]
  Diminution(%)sous l'influence du traitement cholestérolémie: 57,5%
  Diminution(%)sous l'influence du traitement triglycéridémie: 47%
[1]; acetone
  solubilité dans l'acétone: pratiquement insoluble dans l'acétone
[1]; alcohol
  solubilité dans l'alcool: peu soluble dans l'alcool
[1]; water
  solubilité dans l'eau: très soluble dans l'eau

## C=C(CN1CCOCC1)C(=O)c1ccccc1 [chlorhydratede 2-(1-morpholinométhyl)-acrylophénone]
plaquettes
  pIC50: 5.71
rat; [2]
  Diminution(%)sous l'influence du traitement cholestérolémie: 51,0%
  Diminution(%)sous l'influence du traitement triglycéridémie: 44,5%

## C=C(CN(C)C)C(=O)c1ccccc1 [chlorhydratede 2-(N,N-diméthylaminométhyl)-acrylophénone]
plaquettes
  pIC50: 5.95
rat; [3]
  Diminution(%)sous l'influence du traitement cholestérolémie: 48%
  Diminution(%)sous l'influence du traitement triglycéridémie: 36,5%
